Patent US6841578B2, “Treatment and prevention of mucositis in cancer patients” (priority 2001, dated 2005)

Legend:
[1] = system: radiation-induced mucositis; experiment: Hamster model of acute radiation-induced mucositis treated with resveratrol; assay type: in vivo, Male Golden Syrian hamsters; details: for percentage of days where hamsters had a mucositis score of three or higher: qd, day -1 to day 20, 40 Gy on day 0, control 46.0%
NF-κB = details: induction by TNF-α; phosphorylation and nuclear translocation of p65 subunit suppressed; cited from earlier work

SMILES: Oc1ccc(/C=C/c2cc(O)cc(O)c2)cc1 [resveratrol, trans-3,4′,5-trihydroxystilbene]
- percentage of days where hamsters had a mucositis score of three or higher ([1]; 1 mM resveratrol, intraperitoneal): 21.6%
- percentage of days where hamsters had a mucositis score of three or higher ([1]; 5 mM resveratrol, intraperitoneal): 31.2%
- severity of mucositis compared to the control ([1]; intraperitoneal, 1 mM and 5 mM (FIG. 2)): reduced the severity of mucositis
- efficacy of 1 mM compared with 5 mM treatment ([1]; intraperitoneal, 1 mM versus 5 mM): more effective
- efficacy of topical application on mucositis ([1]; topical, tid, 1 mM and 5 mM): not statistically significant, indicated a trend of efficacy
- activation of NF-κB (NF-κB): blocked the activation of NF-κB
